These molecules were tested against Sigma-2 receptor (TMEM97) (Rattus norvegicus) (assay: Binding affinity towards Sigma receptor site 2 in rat brain using [3H]DTG as radioligand).

**Q.** For `c1ccc(CCN2CCC3(CC2)OCc2ccccc23)cc1` [1'-(2-phenylethyl)-3H-spiro[2-benzofuran-1,4'-piperidine]], which IC50 is on record?
**A.** Its IC50 is 2.9 nM.

**Q.** With `c1ccc2c(c1)COC21CCN(CCCOC2CCCCC2)CC1` [1'-(3-cyclohexyloxypropyl)-3H-spiro[2-benzofuran-1,4'-piperidine]] as the molecule, how does the IC50 read?
**A.** The IC50 was 0.07 nM.

**Q.** Which IC50 does the source give for `c1ccc2c(c1)COC21CCN(CCCCC2CCCCC2)CC1` [1'-(cyclohexylbutyl)-3H-spiro[2-benzofuran-1,4'-piperidine]] here?
**A.** Its IC50 is 0.07 nM.

**Q.** Which IC50 does the source give for `Fc1ccc(-n2cc(CCCCN3CCC4(CC3)OCc3c(C(F)(F)F)cccc34)c3ccccc32)cc1` [1'-{4-[1-(4-fluorophenyl)-1H-3-indolyl]butyl}-4-trifluoromethylspiro[1,3-dihydroisobenzofuran-1,4'-(hexahydropyridine)]] here?
**A.** Its IC50 is 2.6 nM.

**Q.** Which IC50 does the source give for `Fc1ccc(-n2cc(CCCCN3CCC4(CC3)SCc3ccccc34)c3ccccc32)cc1` [1'-{4-[1-(4-fluorophenyl)-1H-3-indolyl]butyl}spiro[1,3-dihydrobenzo[c]thiophene-1,4'-(hexahydropyridine)]] here?
**A.** Its IC50 is 0.14 nM.

**Q.** `Fc1ccc(-n2cc(CCCCN3CCC4(CC3)Cc3ccccc3O4)c3ccccc32)cc1` [1'-{4-[1-(4-fluorophenyl)-1H-3-indolyl]butyl}spiro[2,3-dihydrobenzo[b]furan-2,4'-(hexahydropyridine)]] was tested. Which IC50 did it give?
**A.** The IC50 was 340 nM.

**Q.** How did the IC50 turn out when `Fc1ccc(-n2cc(CCCCN3CCC4(CC3)COc3ccccc34)c3ccccc32)cc1` [1'-{4-[1-(4-fluorophenyl)-1H-3-indolyl]butyl}spiro[2,3-dihydrobenzo[b]furan-3,4'-(hexahydropyridine)]] was run?
**A.** Its IC50 is 12 nM.

**Q.** With `Fc1ccc(-n2cc(CCCCN3CCC4(CC3)OCCc3ccccc34)c3ccccc32)cc1` [1'-{4-[1-(4-fluorophenyl)-1H-3-indolyl]butyl}spiro[3,4-dihydro-1H-isochromene-1,4'-(hexahydropyridine)]] as the molecule, how does the IC50 read?
**A.** Its IC50 is 0.9 nM.

**Q.** How did the IC50 turn out when `Fc1ccc(-n2cc(CCCCN3CCC4(CC3)Cc3ccccc3CO4)c3ccccc32)cc1` [1'-{4-[1-(4-fluorophenyl)-1H-3-indolyl]butyl}spiro[3,4-dihydro-1H-isochromene-3,4'-(hexahydropyridine)]] was run?
**A.** Its IC50 is 1.1 nM.

**Q.** For `Fc1ccc(-n2cc(CCCCN3CCC4(CC3)COCc3ccccc34)c3ccccc32)cc1` [1'-{4-[1-(4-fluorophenyl)-1H-3-indolyl]butyl}spiro[3,4-dihydro-1H-isochromene-4,4'-(hexahydropyridine)]], which IC50 is on record?
**A.** Its IC50 is 0.34 nM.

**Q.** `Fc1ccc(-n2cc(CCCCN3CCC4(CC3)COc3ccccc3C4)c3ccccc32)cc1` [1'-{4-[1-(4-fluorophenyl)-1H-3-indolyl]butyl}spiro[3,4-dihydro-2H-chromene-3,4'-(hexahydropyridine)]] was tested. Which IC50 did it give?
**A.** The IC50 was 250 nM.

**Q.** With `Fc1ccc(-n2cc(CCCCN3CCC4(CCOc5ccccc54)CC3)c3ccccc32)cc1` [1'-{4-[1-(4-fluorophenyl)-1H-3-indolyl]butyl}spiro[3,4-dihydro-2H-chromene-4,4'-(hexahydropyridine)]] as the molecule, how does the IC50 read?
**A.** Its IC50 is 3 nM.

**Q.** How did the IC50 turn out when `Fc1ccc(-n2cc(CCCCN3CCC4(CC3)Oc3ccccc3O4)c3ccccc32)cc1` [1'-{4-[1-(4-fluorophenyl)-1H-3-indolyl]butyl}spiro[benzo[d][1,3]dioxole-2,4'-(hexahydropyridine)]] was run?
**A.** Its IC50 is 270 nM.

**Q.** Which IC50 does the source give for `Fc1ccc(-n2cc(CCCCN3CCC4(CC3)OCc3c(F)cccc34)c3ccccc32)cc1` [1-[1-(4-fluorophenyl)-1H-3-indolyl]-4-[4-fluorospiro[1,3-dihydroisobenzofuran-1,4'-(hexahydropyridine)]-1-yl]butane] here?
**A.** Its IC50 is 1.8 nM.

**Q.** `Fc1ccc(-n2cc(CCCCN3CCC4(CC3)OCc3cccc(F)c34)c3ccccc32)cc1` [1-[1-(4-fluorophenyl)-1H-3-indolyl]-4-[7-fluorospiro[1,3-dihydroisobenzofuran-1,4'-(hexahydropyridine)]-1-yl]butane] was tested. Which IC50 did it give?
**A.** Its IC50 is 0.58 nM.
